Results on 8 molecules are retold here after patent publication US10471054B2, “CDK1 inhibitors of acetyl chrysin mannich base derivatives, synthesis and use thereof” (priority 2016, dated 2019).

Molecules are shown by their SMILES. Converted amounts (≈) assume the structure as drawn. Where two headings read alike, the source gives them in different places.

Data set [1] is described as follows: Solubility in Octanol, water and pH media. The conditions noted are these: 37° C. The class given is physicochemical. As for the experimental part: (§1) The solubility and log P of acetyl ChrysinMannich base derivatives see TABLE 1.
(§2) CH-j is pKa 5.3, log P 1.63 in Octanol/Water at 37° C. […] (BA-j 77m/ml). CH-j belongs to BCS II (low solubility, high permeability) and solubility presents the pH dependence. […] CH-j is a pH dependent fast release. […] It is speculated that CH-j has more appropriate log P and solubility with more likely entering tissue cells than others solubility acetyl Chrysin Mannich base derivatives.
(§3) (about 20 times BA-f 277 μg/ml) and 564 μg/ml in water at 37° C. (about 1000 times BA-f 0.53m/ml). CH-f is BCS I (high solubility and permeability) and solubility presents the pH dependence. It is speculated that CH-f has more appropriate log P and solubility with entering systemic (blood system and tissue cells) than others solubility acetyl Chrysin Mannich base derivatives.

The next data set is described as follows: log P in Octanol/Water. The data set is classed as physicochemical. The conditions noted are these: octanol/water, Octanol/Water at 37° C. As for the experimental part: as §1, §2, §3
Another data set in a line: pKa. The class given is physicochemical. As for the experimental part: as §2, §3
The subject of a further data set is Hep G2. Nature of the data set: NaOCl level, BODTPY-OCl fluorescent probe imaging. The data set is classed as cell-based. The note with it: CH-j 40 μM or HCPT 5 μM for 4 h. As for the experimental part:
In vitro cultured Hep G2 was given by BODTPY-OCl selective fluorescent probe 5 μM for 0.5 h, added CH-j 40 μM or HCPT 5 μM for 4 h, and performed fluorescence imaging.

For a further data set, the system named is BGC-823. Nature of the data set: Annexin V-FITC-PI double fluorescence, apoptosis and necrosis. The class given is cell-based. The conditions noted are these: 24 h. An excerpt:
There is a series of morphological characteristic changes in the apoptosis of cells, in which the change of the plasma membrane is one of the characteristics of early apoptosis. The cytoplasm is flipped from the inside of the cytoplasm to the outer surface of the cell when the cell apoptosis, Annexin V is a Ca^++ dependent phospholipid binding protein, which has a high affinity with phospholipid-peptide-serine, which can be combined with the phospholipid peptide specificity that is exposed to the extracellular cells. However, cytoplasm transfer to cell membrane is not unique to apoptosis, but also can occur in cell necrosis. The difference between the two cell death modes is that the cell membrane is intact in the initial stage of apoptosis, and the integrity of the cell membrane in its early stage is destroyed. PI is a nucleic acid dye that cannot pass through the intact cell membrane, but in the cell and necrotic cells in the middle and late stage of apoptosis, the PI can dye the nucleus through the cell membrane. Annexin V-FITC-PI was used to detect apoptosis and necrotic cell ratio on flow cytometry.
A relatively small increase in apoptotic cells is increased.
FIG. 3-3 Annexin V-FITC/PI staining results for BGC-823.

Data set [2] has as its system 5 cancers cells (MCF-7, H-460, BGC-823, PC-3, Hep G2). Nature of the data set: Anti-cancer cells proliferation activity, average of 5 cancer cells. The class given is cell-based. The conditions noted are these: average of 5 cancer cells, MTT, 48 h. The source says: Anti-cancer cells proliferationactivity of in vitro CH-j and CH-f were shown in TABLE 2 for the results of the screening of 5 cancers cells.

The conditions of data set [3]: Chrysin comparison value; cited from earlier work.
The conditions of data set [4]: oral, liver first pass effect; cited from earlier work.
Where [5] appears, read: organic solvent or mixture, Octanol, read-out: Solubility in Octanol.
Where [6] appears, read: water, read-out: Solubility in H2O.

As a reminder, the solubility is the concentration that dissolves in the medium under given conditions. In general, logP refers to the decadic logarithm of the partition coefficient of the neutral form, usually between octanol and water. Read a low logP as a more hydrophilic compound. Usually pKa stands for the pH at which an ionisable group is half protonated. Lower therefore signals a stronger acid or weaker base. Broadly, the IC50 is the concentration at which inhibition is half-maximal.

Turning to `CN1CCN(Cc2c(O)c(O)c(O)c3c(=O)cc(-c4ccccc4)oc23)CC1` [BA-f, 5,6,7-trihydroxy-8-(4-methylpiperazin-1-ylmethyl)-2-phenyl-chromen-4-one, reference compound], the solubility was found to be 277 µg/mL (≈ 724 µM) in data set [1] (setting [5]); 0.53 µg/mL (≈ 1.39 µM) in data set [1] (water, text values of BA-j and BA-f, read-out: Solubility in water). Moreover, in “log P in Octanol/Water”, the log partition coefficient (logP) is 1.7. This molecule gave a pKa in “pKa” of 5.6.
Take `CC[C@@]1(O)C(=O)OCc2c1cc1n(c2=O)Cc2cc3cc(O)ccc3nc2-1` [HCPT, reference compound]: the “NaOCl, yellow green fluorescence” value in the data set with Hep G2 was “present fluorescence”. Moreover, the “Apoptosis and necrosis by Annexin V-FITC-PI” value in the data set on BGC-823 is “induce apoptosis at low doses, and high dose can cause the inflammatory necrosis of early cells”.
With `CC(=O)c1c(O)c(CN2CCC(O)CC2)c(O)c2c(=O)cc(-c3ccccc3)oc12` [is-CH-j, 8-Acetyl-5,7-dihydroxy-6-(4-hydroxy-piperidin-1-ylmethyl)-2-phenyl-chromen-4-one], the solubility in data set [1] (setting [5]) was 3410 µg/mL (≈ 8330 µM); in data set [1] (setting [6]), 52 µg/mL (≈ 127 µM). In the data set “log P in Octanol/Water”, this molecule returned a logP of 1.82. In “pKa”, this molecule returned a pKa of 4.5.
In the case of `CC(=O)c1c(O)c(CN2CCCC2CO)c2oc(-c3ccccc3)cc(=O)c2c1O` (centres unmarked) [CH-h, 6-Acetyl-5,7-dihydroxy-8-(2-hydroxymethyl-pyrrolidin-1-ylmethyl)-2-phenyl-chromen-4-one], the solubility in data set [1] (setting [5]) is 2550 µg/mL (≈ 6230 µM); in data set [1] (setting [6]), 43.4 µg/mL (≈ 106 µM). This molecule also registered a logP in the data set “log P in Octanol/Water” of 1.77. In “pKa”, this molecule had a pKa of 5.4.
For `CC(=O)c1c(O)c(CN2CCOCC2)c2oc(-c3ccccc3)cc(=O)c2c1O` [CH-d, 6-Acetyl-5,7-dihydroxy-8-morpholin-4-ylmethyl-2-phenyl-chromen-4-one] the same measures were 580 µg/mL (≈ 1470 µM), 1.4 µg/mL (≈ 3.54 µM), 2.62 and 5.1.
`O=c1cc(-c2ccccc2)oc2cc(O)cc(O)c12` [Chrysin] returned an IC50 in data set [2] of 30 µM. Besides, the Maximum drug concentration in data set [3] was 0.64 µM. The “Glucose aldehyde acid metabolism” value in data set [4] is > 95%.
`CC(=O)c1c(O)c(CN2CCSCC2)c2oc(-c3ccccc3)cc(=O)c2c1O` [CH-e, 6-Acetyl-5,7-dihydroxy-2-phenyl-8-(thiomorpholin-4-ylmethyl)-2-phenyl-chromen-4-one]: the solubility in data set [1] (setting [5]) turned out to be 120 µg/mL (≈ 292 µM); in data set [1] (setting [6]), 0.1 µg/mL (≈ 0.243 µM). The same molecule came in with a log partition coefficient (logP) in “log P in Octanol/Water” of 3.08. Besides, in the data set “pKa”, the pKa was determined as 4.8.
Turning to `CC(=O)c1c(O)c(CN2CCN(CCO)CC2)c2oc(-c3ccccc3)cc(=O)c2c1O` [CH-i, 6-Acetyl-5,7-dihydroxy-8-[4-(2-hydroxy-ethyl)-piperazin-1-ylmethyl]-2-phenyl-chromen-4-one], the solubility worked out at 733 µg/mL (≈ 1670 µM) in data set [1] (setting [5]) and 6.2 µg/mL (≈ 14.1 µM) in data set [1] (setting [6]). In addition, the logP in “log P in Octanol/Water” came to 2.07. In “pKa”, the pKa was found to be 4.8.
